The record followed here is patent publication US20190125934A1, “TOUGH HYDROGEL COATING AND METHOD OF MANUFACTURE” (Massachusetts Institute of Technology, priority 2017, published 2019).

Series [1] is described as follows: Two-chamber release test of model drugs from hydrogel laminate. Particulars: for dye leakage through the laminate into the opposite chamber: absorbance at 550 nm and 630 nm in both chambers; for power law release exponent: release from hydrogel layers of the laminate into DI water, Fickian release. The series is classed as physicochemical. The text has this: A two-chamber diffusion device was made using cast acrylic plates (McMaster Carr), and small magnetic stir bars and stir plates (VWR International) were used for stirring. For the diffusion tests, a 3cm×3 cm hydrogel, elastomer, or impermeable hydrogel laminate sample was placed between the chambers and screwed together tightly to prevent leakage from the chambers. A 5.0×10−4 M rhodamine B solution (Sigma-Aldrich R6626) was placed on one chamber while DI water was placed in the opposite chamber, and 1 mL aliquots were taken every 10 min and placed in a disposable cuvette. Absorbance was measured using a spectrophotometer (BioMate 3S, ThermoFischer Scientific) and converted to concentration using calibration curves of solutions with known concentrations. The setup for release experiments was identical except both chambers initially contained DI water with rhodamine B and green food dye (Fast green FCF, Sigma-Aldrich F7252) being released from the hydrogel. For rhodamine diffusion and release, a wavelength sweep was performed to determine the maximum absorbance, which occurred at 550 nm. The calibration curve was constructed by measuring absorbance of standard solutions in the 0-50×10−6 m range. For green food dye release, the maximum absorbance occurred at 630 nm. The calibration curve was constructed by measuring absorbance of standard solutions in the 0-200 ppm range.
Taking advantage of the impermeability of the hydrogel-elastomer laminate, the possibility of releasing different molecules from the two sides of the hydrogel sheets in the laminate was tested. Green food dye (Fast Green FCF, Sigma-Aldrich) and rhodamine B were used as model drugs and were loaded into the opposing two hydrogel sheets in the hydrogel-elastomer laminate structure. […] The concentrations of green food dye and rhodamine B in the solutions of both chambers were measured over time using absorbance measurements. […] Since the dyes used have absorbance maximums at different wavelengths (550 nm and 630 nm), it was possible to detect dye leakage through the impermeable hydrogel-elastomer laminate by monitoring the absorbance signals at the two wavelengths in both chambers.

The test system of series [2] is Escherichi coli strain expressing green fluorescent protein. The series can be described thus: Bacterial adhesion testing. Particulars: 24 hour incubation; FIG. 4; streptomycin sulfate 0.1 wt %. The series is classed as cell-based. The text has this:
The high robustness and stretchability of the hydrogel-elastomer laminates allows for proper functioning of the devices under stresses and deformations. […] In addition, the lubricious and highly hydrated hydrogel coating surfaces provided by the present invention are capable of improving protein adsorption, anticlotting and foreign-body reaction of the device as compared to an uncoated device. Moreover, the coating protocol of the present invention can be designed to include therapeutic agents in the hydrogel coating and/or to introduce hydrogel components with known biological responses such as PEG, hyaluronic acid, and zwitterionic groups.
An engineered Escherichi coli strain expressing green fluorescent protein was cultured in a 24-well plate above 8 mm round samples of latex, glass or swollen hydrogel laminate (PAAm-ALG and PAAm-CHI, as described previously). Streptomycin sulfate (Sigma-Aldrich S9137) was added to the two laminate formulations, at a final concentration of 0.1 wt %. After incubating at 37° C. for 24 h, the samples were removed, rinsed with PBS to remove free-floating bacteria, and imaged with a fluorescent microscope (Nikon Eclipse LV100ND).

Structures can show the parent of a compound that is named as a salt.

As to `CCN(Cc1cccc(S(=O)(=O)[O-])c1)c1ccc(C(=C2C=CC(=[N+](CC)Cc3cccc(S(=O)(=O)[O-])c3)C=C2)c2ccc(O)cc2S(=O)(=O)[O-])cc1.[Na+].[Na+]` [Green food dye, Fast Green FCF], in series [1], the “dye leakage through the laminate into the opposite chamber” value is recorded as “No green food dye was detected in the rhodamine chamber” and the “power law release exponent” value turned out to be 0.5.

Take `[H]/N=C(/N)N[C@H]1[C@H](O)[C@@H](O)[C@H](O[C@@H]2O[C@@H](C)[C@](O)(C=O)[C@H]2O[C@@H]2O[C@@H](CO)[C@H](O)[C@@H](O)[C@@H]2NC)[C@@H](N/C(N)=N\[H])[C@@H]1O` [antibiotic, Streptomycin sulfate]: in series [2], the “effect on antibacterial action of the hydrogel laminates” value is reported as “improve the antibacterial action”.

Consider `CCN(CC)c1ccc2c(-c3ccccc3C(=O)O)c3ccc(=[N+](CC)CC)cc-3oc2c1` [rhodamine B], for which, in series [1], the “dye leakage through the laminate into the opposite chamber” value is recorded as “vice versa” and the “power law release exponent” value was determined as 0.5.
